Measurements published in ChEMBL document CHEMBL6074641, “Polypharmacological Drug Design Guided by Integrating Phenotypic and Restricted Fragment Docking Strategies” (J Med Chem, 2024).
Active and inactive are the calls of the source. The calls are words filed in the database; no cut-off is given here.

Experiments:
[1] = molecular target: Voltage-gated inwardly rectifying potassium channel KCNH2 (Homo sapiens, UniProt Q12809); experiment: Inhibition of human ERG expressed in CHO cells by Qpatch clamp method; format: toxicity, cell-based
Voltage-gated inwardly rectifying potassium channel KCNH2, sequence (Q12809 whole entry): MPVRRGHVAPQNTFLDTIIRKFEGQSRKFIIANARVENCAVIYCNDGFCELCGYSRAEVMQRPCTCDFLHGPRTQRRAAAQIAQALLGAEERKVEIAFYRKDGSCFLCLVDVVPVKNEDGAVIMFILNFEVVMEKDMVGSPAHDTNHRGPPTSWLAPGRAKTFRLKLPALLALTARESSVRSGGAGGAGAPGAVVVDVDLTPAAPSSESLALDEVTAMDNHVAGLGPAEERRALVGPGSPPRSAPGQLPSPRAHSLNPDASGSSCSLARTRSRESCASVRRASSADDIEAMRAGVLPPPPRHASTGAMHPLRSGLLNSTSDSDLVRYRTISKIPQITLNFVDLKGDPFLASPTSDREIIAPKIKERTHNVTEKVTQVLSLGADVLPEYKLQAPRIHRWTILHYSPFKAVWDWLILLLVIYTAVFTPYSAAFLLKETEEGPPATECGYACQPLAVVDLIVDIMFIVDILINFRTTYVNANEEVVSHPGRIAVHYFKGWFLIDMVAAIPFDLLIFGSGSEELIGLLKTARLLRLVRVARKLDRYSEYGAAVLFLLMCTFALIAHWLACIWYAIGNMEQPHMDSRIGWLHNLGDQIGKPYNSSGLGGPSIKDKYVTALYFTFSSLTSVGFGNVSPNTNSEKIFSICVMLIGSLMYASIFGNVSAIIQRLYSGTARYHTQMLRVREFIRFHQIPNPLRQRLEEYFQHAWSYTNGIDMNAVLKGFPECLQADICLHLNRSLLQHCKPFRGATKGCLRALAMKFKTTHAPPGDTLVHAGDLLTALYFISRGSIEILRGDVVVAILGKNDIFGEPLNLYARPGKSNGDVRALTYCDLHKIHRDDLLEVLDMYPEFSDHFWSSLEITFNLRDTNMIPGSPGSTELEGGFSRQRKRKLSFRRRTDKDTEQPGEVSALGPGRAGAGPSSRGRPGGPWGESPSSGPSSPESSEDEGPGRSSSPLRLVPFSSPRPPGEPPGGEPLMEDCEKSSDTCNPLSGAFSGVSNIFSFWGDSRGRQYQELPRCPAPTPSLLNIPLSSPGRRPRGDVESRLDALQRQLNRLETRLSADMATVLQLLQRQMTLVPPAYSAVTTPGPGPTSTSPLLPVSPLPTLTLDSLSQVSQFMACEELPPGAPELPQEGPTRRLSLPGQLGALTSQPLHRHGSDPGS

[2] = molecular target: Receptor-interacting serine/threonine-protein kinase 1 (Mus musculus) (UniProt Q60855); experiment: Inhibition of RIPK1 activation in mouse BV-2 cells by Western blotting analysis; format: cell-based; conditions: dose 4-100 nM
[3] = Half-life in C57BL/6 mouse brain at 10 mg/kg, po measured upto 24 hrs by LC-MS/MS analysis; format: ADME, organism-based
[4] = molecular target: T1, Mitogen-activated protein kinase kinase kinase kinase 4 (Homo sapiens, UniProt O95819); experiment: Inhibition of MAP4K4 (unknown origin) at 1 uM
Cytochrome P450 2B6 = Cytochrome P450 2B6 (Homo sapiens, UniProt P20813); experiment: Inhibition of CYP2B6 (unknown origin) incubated for 10 mins in presence of NADPH by LC-MS/MS analysis; format: ADME
Cytochrome P450 2B6, sequence (P20813 whole entry): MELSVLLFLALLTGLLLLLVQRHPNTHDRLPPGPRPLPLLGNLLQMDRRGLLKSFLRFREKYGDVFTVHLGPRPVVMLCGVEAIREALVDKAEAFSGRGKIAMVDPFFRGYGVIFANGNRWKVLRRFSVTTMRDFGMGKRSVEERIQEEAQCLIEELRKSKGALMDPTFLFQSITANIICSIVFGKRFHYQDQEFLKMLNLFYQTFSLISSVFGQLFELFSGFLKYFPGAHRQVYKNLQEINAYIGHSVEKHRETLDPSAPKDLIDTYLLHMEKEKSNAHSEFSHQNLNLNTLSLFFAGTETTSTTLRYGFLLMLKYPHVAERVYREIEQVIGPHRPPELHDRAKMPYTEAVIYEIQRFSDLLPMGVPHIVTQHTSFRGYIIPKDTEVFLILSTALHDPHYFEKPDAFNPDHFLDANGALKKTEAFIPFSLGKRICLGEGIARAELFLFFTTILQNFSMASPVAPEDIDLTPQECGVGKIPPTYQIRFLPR

Mus musculus [5] = experiment: Anti-alzheimer activity against 8 month old 3xTg mouse model assessed as increase in searching frequency towards annulus at 10 mg/kg, po administered 4 times per week for 4 weeks; format: functional, organism-based
[6] = molecular target: T1, Mitogen-activated protein kinase kinase kinase kinase 4; experiment: Inhibition of recombinant MAP4K4 (1 to 328 residues) (unknown origin) expressed in Escherichia coli BL21([…]) using MBP as substrate preincubated for 15 mins followed by substrate and ATP addition and measured after 90 mins by ADP-Glo luminescence […] assay
[7] = molecular target: ALK tyrosine kinase receptor (Homo sapiens, UniProt Q9UM73); experiment: Inhibition of ALK (unknown origin) at 1 uM
Mus musculus [8] = experiment: Anti-alzheimer activity against 5 month old APP/PS1 transgenic mouse model assessed as improved spatial preference towards annulus at 10 mg/kg, po administered 4 times per week for 4 weeks; format: functional, organism-based
Mus musculus [9] = experiment: Anti-alzheimer activity against 8 month old 3xTg mouse model assessed as decrease in restlessness at 2 to 10 mg/kg, po administered 4 times per week for 4 weeks; format: functional, organism-based; conditions: dose 2-10 mg/kg
[10] = Cmax in C57BL/6 mouse brain at 10 mg/kg, po measured upto 24 hrs by LC-MS/MS analysis; format: ADME, organism-based
Mus musculus [11] = experiment: Anti-alzheimer activity against 8 month old 3xTg mouse model assessed as improved cognitive ability at 2 mg/kg, po administered 4 times per week for 4 weeks; format: functional, organism-based
Mus musculus [12] = experiment: Downregulation of RIPK1 phosphorylation in 3xTg mouse hippocampus at 2 to 10 mg/kg, po by immunohistochemistry analysis; format: functional, organism-based; conditions: dose 2-10 mg/kg
Cytochrome P450 3A5 = Cytochrome P450 3A5 (Homo sapiens, UniProt P20815); experiment: Inhibition of CYP3A5 (unknown origin) using midazolam as substrate incubated for 10 mins in presence of NADPH by LC-MS/MS analysis; format: ADME
Cytochrome P450 3A5, sequence (P20815 whole entry): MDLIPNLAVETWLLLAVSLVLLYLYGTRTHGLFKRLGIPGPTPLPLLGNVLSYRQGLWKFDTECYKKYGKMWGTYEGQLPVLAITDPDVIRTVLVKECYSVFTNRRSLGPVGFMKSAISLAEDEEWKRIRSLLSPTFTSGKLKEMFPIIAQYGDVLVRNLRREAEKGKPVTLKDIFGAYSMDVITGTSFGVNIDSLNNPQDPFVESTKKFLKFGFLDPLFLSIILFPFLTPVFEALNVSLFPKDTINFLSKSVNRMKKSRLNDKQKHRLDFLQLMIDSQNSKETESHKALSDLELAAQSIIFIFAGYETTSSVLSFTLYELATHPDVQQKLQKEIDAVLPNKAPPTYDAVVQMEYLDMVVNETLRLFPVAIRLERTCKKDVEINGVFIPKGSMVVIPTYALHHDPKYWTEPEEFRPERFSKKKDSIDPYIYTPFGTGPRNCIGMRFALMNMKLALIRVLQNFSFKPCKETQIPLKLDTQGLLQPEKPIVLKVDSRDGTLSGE

Mus musculus [13] = experiment: Anti-alzheimer activity against 5 month old APP/PS1 transgenic mouse model assessed as decrease in anxiety level at 2 to 10 mg/kg, po administered 4 times per week for 4 weeks; format: functional, organism-based; conditions: dose 2-10 mg/kg
[14] = molecular target: Mitogen-activated protein kinase kinase kinase kinase 4 (Mus musculus) (UniProt P97820); experiment: Inhibition of MAP4K4 activation in mouse BV-2 cells by Western blotting analysis; format: cell-based; conditions: dose 4-100 nM
[15] = Unbound plasma protein binding in human incubated for 24 hrs by HPLC based equilibrium dialysis method; format: ADME, cell-free
Microglia [16] = experiment: Anti-necroptosis activity in LPS/zVAD stimulated mouse primary microglia assessed as reversal of severe membrane disruption by TEM analysis; format: functional, cell-based
BV-2 [17] = experiment: Anti-inflammatory activity against LPS/zVAD treated mouse BV-2 cells assessed as decrease in TNFalpha release at 100 nM by ELISA; format: functional, cell-based
Cytochrome P450 2C8 = Cytochrome P450 2C8 (Homo sapiens, UniProt P10632); experiment: Inhibition of CYP2C8 (unknown origin) incubated for 10 mins in presence of NADPH by LC-MS/MS analysis; format: ADME
Microglia [18] = experiment: Anti-necroptosis activity in LPS/zVAD stimulated mouse primary microglia transfected with Myc-tagged ALK plasmid assessed as protection of microglia cells at 100 nM; format: functional, cell-based
Mus musculus [19] = experiment: Anti-alzheimer activity against 8 month old 3xTg mouse model assessed as decrease in anxiety level at 2 to 10 mg/kg, po administered 4 times per week for 4 weeks; format: functional, organism-based; conditions: dose 2-10 mg/kg
BV-2 [20] = experiment: Cytotoxicity against mouse BV-2 cells at 10 uM; format: toxicity, cell-based; conditions: bv-2, 10 µM
BV-2 [21] = experiment: Inhibition of MLKL activation in mouse BV-2 cells by Western blotting analysis; format: cell-based; conditions: dose 4-100 nM
[22] = Tmax in C57BL/6 mouse plasma at 10 mg/kg, po measured upto 24 hrs by LC-MS/MS analysis; format: ADME, organism-based
Microglia [23] = experiment: Anti-necroptosis activity in LPS/zVAD stimulated mouse primary microglia overexpressed with MAP4K4 assessed as reversal of translucent cytoplasm by TEM analysis; format: functional, cell-based
[24] = molecular target: ALK tyrosine kinase receptor (Mus musculus) (UniProt P97793); experiment: Inhibition of ALK activation in mouse BV-2 cells by Western blotting analysis; format: cell-based; conditions: dose 4-100 nM
ALK tyrosine kinase receptor (Mus musculus), sequence (P97793 whole entry): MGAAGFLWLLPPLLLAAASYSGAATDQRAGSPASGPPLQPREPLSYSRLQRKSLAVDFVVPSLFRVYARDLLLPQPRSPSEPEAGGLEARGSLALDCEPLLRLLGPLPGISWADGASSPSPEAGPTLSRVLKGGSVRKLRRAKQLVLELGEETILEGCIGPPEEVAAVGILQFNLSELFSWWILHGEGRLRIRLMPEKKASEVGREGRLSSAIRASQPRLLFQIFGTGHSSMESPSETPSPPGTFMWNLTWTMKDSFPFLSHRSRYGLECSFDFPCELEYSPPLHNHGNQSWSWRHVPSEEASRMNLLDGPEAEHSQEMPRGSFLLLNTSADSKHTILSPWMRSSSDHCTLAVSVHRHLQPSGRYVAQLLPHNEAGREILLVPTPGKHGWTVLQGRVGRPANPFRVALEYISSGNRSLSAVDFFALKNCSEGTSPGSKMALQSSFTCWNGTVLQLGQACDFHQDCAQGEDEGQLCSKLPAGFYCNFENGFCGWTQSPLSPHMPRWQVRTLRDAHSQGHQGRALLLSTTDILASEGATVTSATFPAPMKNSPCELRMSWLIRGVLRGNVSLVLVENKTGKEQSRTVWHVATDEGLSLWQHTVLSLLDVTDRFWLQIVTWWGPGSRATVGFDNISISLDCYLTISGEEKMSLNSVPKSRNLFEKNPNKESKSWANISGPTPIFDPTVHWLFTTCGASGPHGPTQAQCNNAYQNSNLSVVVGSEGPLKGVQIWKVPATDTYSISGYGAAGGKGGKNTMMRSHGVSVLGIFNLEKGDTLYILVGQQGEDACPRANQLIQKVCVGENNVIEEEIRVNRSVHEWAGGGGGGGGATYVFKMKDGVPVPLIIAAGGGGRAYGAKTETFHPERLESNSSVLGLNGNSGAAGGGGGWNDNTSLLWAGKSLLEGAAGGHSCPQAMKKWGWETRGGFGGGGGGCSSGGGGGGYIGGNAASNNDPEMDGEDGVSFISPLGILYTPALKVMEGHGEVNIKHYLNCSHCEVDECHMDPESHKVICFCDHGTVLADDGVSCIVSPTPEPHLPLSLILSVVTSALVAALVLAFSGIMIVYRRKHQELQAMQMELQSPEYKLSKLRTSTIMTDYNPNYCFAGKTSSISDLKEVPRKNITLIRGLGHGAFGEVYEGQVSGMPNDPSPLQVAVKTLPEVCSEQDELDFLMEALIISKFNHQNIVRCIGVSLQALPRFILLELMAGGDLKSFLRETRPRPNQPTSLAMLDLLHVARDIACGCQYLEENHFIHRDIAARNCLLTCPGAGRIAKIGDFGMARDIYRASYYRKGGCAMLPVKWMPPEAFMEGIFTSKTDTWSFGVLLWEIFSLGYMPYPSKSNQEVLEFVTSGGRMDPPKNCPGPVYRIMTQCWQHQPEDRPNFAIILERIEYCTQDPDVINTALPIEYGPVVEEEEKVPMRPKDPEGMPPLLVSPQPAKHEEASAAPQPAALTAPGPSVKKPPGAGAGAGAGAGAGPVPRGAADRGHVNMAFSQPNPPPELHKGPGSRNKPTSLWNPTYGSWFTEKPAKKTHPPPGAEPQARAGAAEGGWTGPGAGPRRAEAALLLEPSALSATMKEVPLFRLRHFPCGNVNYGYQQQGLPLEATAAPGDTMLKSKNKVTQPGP

hERG (KCNH2) = hERG (KCNH2) (Homo sapiens, UniProt Q12809); experiment: Inhibition of human ERG expressed in CHO cells at 20 uM by Qpatch clamp method relative to control; format: toxicity, cell-based; conditions: CHO cells that express hERG
hERG (KCNH2), sequence (Q12809 whole entry): as the sequence (Q12809 whole entry) above

Mus musculus [25] = experiment: Anti-alzheimer activity in 8 month old 3xTg mouse model assessed as reversal of transcriptomic changes in Hba-a1 at 10 mg/kg, po; format: functional, organism-based
Mus musculus [26] = experiment: Anti-alzheimer activity against 5 month old APP/PS1 transgenic mouse model assessed as […] at 2 mg/kg, po administered 4 times per week for 4 weeks; format: functional, organism-based
[27] = Metabolic stability in human liver microsomes assessed as half-life at 1 uM measured upto 60 mins in presence of NADPH and UDPGA by LC-MS/MS analysis; format: ADME, Microsome
BV-2 [28] = experiment: Anti-necroptosis activity in mouse BV-2 cells assessed as reduction in p65 expression at 100 nM by confocal microscopic analysis; format: functional, cell-based
[29] = Half-life in C57BL/6 mouse plasma at 10 mg/kg, po measured upto 24 hrs by LC-MS/MS analysis; format: ADME, organism-based
[30] = Unbound plasma protein binding in mouse incubated for 24 hrs by HPLC based equilibrium dialysis method; format: ADME, cell-free
Microglia [31] = experiment: Anti-necroptosis activity in LPS/zVAD stimulated mouse primary microglia assessed as reversal of translucent cytoplasm by TEM analysis; format: functional, cell-based
BV-2 [32] = experiment: Anti-necroptosis activity in mouse BV-2 cells at 10 uM preincubated with LPS for 11 hrs followed by compound addition for 1 hr and exposed to zVAD-fmk for another 24 hrs by Cellcounting-Lite 2.0 luminescent cell viability assay; format: functional, cell-based; conditions: time 25.0 hrs
Mus musculus [33] = experiment: Anti-alzheimer activity in 8 month old 3xTg mouse model assessed as reversal of transcriptomic changes in Lamc2 at 10 mg/kg, po; format: functional, organism-based
Microglia [34] = experiment: Anti-necroptosis activity in LPS/zVAD stimulated mouse primary microglia overexpressed with ALK assessed as reversal of severe membrane disruption by TEM analysis; format: functional, cell-based
Mus musculus [35] = experiment: Anti-necroptosis activity in 3xTg mouse hippocampus assessed as reduction in pMLKL activation at 2 to 10 mg/kg, po; format: functional, organism-based; conditions: dose 2-10 mg/kg
Mus musculus [36] = experiment: Downregulation of ALK phosphorylation in 3xTg mouse hippocampus at 2 to 10 mg/kg, po by immunohistochemistry analysis; format: functional, organism-based; conditions: dose 2-10 mg/kg

- inhibition [2]: Dose-dependent-effect
- half-life [3]: 8.46 h
- inhibition [4]: Active
- IC50 (Cytochrome P450 2B6): 5.2 µM
- inhibition [7]: Active
- Cmax [10]: 290 ng/mL
- IC50 (Cytochrome P450 3A5): > 10 µM
- inhibition [14]: Dose-dependent-effect
- Fu [15]: 0.1%
- IC50 (Cytochrome P450 2C8): 6.8 µM
- Tmax [22]: 2.93 h
- inhibition [24]: Dose-dependent-effect
- half-life at 1 µM [27]: 3.22 h
- half-life [29]: 13.3 h
- Fu [30]: 0.8%
Structure (SMILES): Cc1cc(F)cc(Nc2ncc(Nc3ccc(SC(F)(F)F)cc3)cc2C(N)=O)c1
- IC50 [1]: > 20 µM
- Activity (Mus musculus [5]): Active
- IC50 [6]: 0.41 µM
- Activity (Mus musculus [8]): Active
- Activity (Mus musculus [9]): Active
- Activity (Mus musculus [11]): Active; Activity More Potent Than Nec-1
- Activity (Mus musculus [12]): Active; Activity More Potent Than Nec-1
- Activity (Mus musculus [13]): Active
- Activity (Microglia [16]): Active
- Activity (BV-2 [17]): Active
- Activity (Microglia [18]): inactive
- Activity (Mus musculus [19]): Active
- Activity (BV-2 [20]): Toxic
- inhibition (BV-2 [21]): Dose-dependent-effect
- Activity (Microglia [23]): inactive
- inhibition at 20 µM (hERG (KCNH2)): 11.3%
- Activity (Mus musculus [25]): Active
- Activity (Mus musculus [26]): Active
- Activity (BV-2 [28]): Active
- Activity (Microglia [31]): Active
- Activity (BV-2 [32]): Active
- Activity (Mus musculus [33]): Active
- Activity (Microglia [34]): inactive
- Activity (Mus musculus [35]): Active
- Activity (Mus musculus [36]): Active; Activity More Potent Than Nec-1
